Reference: patent publication US9999222B2, “Herbicidal combination comprising azines” (BASF SE, priority 2014, dated 2018)
“And” between values parts separate entries of the source, which are not always exact repeats. Identical values can stand only once. Like-named read-outs stand apart in the source and are kept apart here.

Assays:
Assay in all cases: Greenhouse test, pre-emergence treatment
BRADC = assay type: in vivo, Brachiaria decumbens; conditions: Urochloa decumbens, pre-emergence, read-out: observed % activity; for inhibition at 16 g/ha: 16 g ai/ha
From the text: (§1) The culture containers used were plastic flowerpots containing loamy sand with approximately 3.0% of humus as the substrate. The seeds of the test plants were sown separately for each species.
(§2) For the pre-emergence treatment, the active ingredients, which had been suspended or emulsified in water, were applied directly after sowing by means of finely distributing nozzles. The containers were irrigated gently to promote germination and growth and subsequently covered with transparent plastic hoods until the plants had rooted. This cover caused uniform germination of the test plants, unless this had been impaired by the active ingredients.
(§3) Depending on the species, the plants were kept at 10-25° C. or 20-35° C., respectively.
(§4) The test period extended over 2 to 4 weeks. During this time, the plants were tended, and their response to the individual treatments was evaluated.
(§5) Evaluation was carried out using a scale from 0 to 100. 100 means no emergence of the plants, or complete destruction of at least the aerial moieties, and 0 means no damage, or normal course of growth. A moderate herbicidal activity is given at values of at least 60, a good herbicidal activity is given at values of at least 70, and a very good herbicidal activity is given at values of at least 85.
(§6) The respective stated components a and b, and if appropriate, c were formulated as a 10% by weight strength emulsion concentrate and, with addition of the amount of solvent system, introduced into the spray liquor used for applying the active compound.
(§7) In the examples, the solvent used was water.
(§8) In the examples below, using the method of S. R. Colby (1967) “Calculating synergistic and antagonistic responses of herbicide combinations”, Weeds 15, p. 22ff., the value E, which is expected if the activity of the individual active compounds is only additive, was calculated. E=X+Y−(X·Y/100) where • X=percent activity using active compound a at an application rate A; • Y=percent activity using active compound b at an application rate B; • E=expected activity (in %) by a+b at application rates A+B.
(§9) If the value found experimentally is higher than the value E calculated according to Colby, a synergistic effect is present.

COMBE = assay type: in vivo, Commelina benghalensis; conditions: 20 DAT
In short: (§10)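 Seeds were sown in loamy sand with about 3.0% humus, and compounds in water were sprayed immediately after sowing, alone or as combinations formulated as 10% emulsion concentrates. Plants grew under hoods until rooted, at 10-25 °C or 20-35 °C by species, for 2 to 4 weeks. Damage was scored 0-100 (100 = no emergence or complete destruction), and Colby expected values were E=X+Y−(X·Y/100).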

PHACA = assay type: in vivo, Phalaris canariensis; conditions: for inhibition at 8 g/ha / inhibition at 16 g/ha: Phalaris canariensis, pre-emergence, read-out: observed % activity; for inhibition at 8 g/ha: 8 g ai/ha
From the text: as §1, §2, §3, §4, §5, §6, §7, §8, §9

AVEFA = assay type: in vivo, Avena fatua; conditions: for observed % activity: 20 DAT
From the text: as §1, §2, §3, §4, §5, §6, §7, §8, §9

ALOMY = assay type: in vivo, Alopecurus myosuroides; conditions: Alopecurus myosuroides, pre-emergence, read-out: observed % activity; for inhibition at 8 g/ha: 8 g ai/ha; for inhibition at 16 g/ha: 16 g ai/ha
In short: as §10

POLCO = assay type: in vivo, Polygonum convolvulus
In short: as §10

SIDRH = assay type: in vivo, Sida rhombifolia; conditions: 20 DAT
In short: as §10

KCHSC = assay type: in vivo, Kochia scoparia; conditions: 20 DAT
In short: as §10

GERPU = assay type: in vivo, Geranium pusillum; conditions: 20 DAT
In short: as §10

GALAP = assay type: in vivo, Galium aparine
In short: as §10

LOLMU = assay type: in vivo, Lolium multiflorum; conditions: Lolium multiflorum, pre-emergence, read-out: observed % activity; for inhibition at 8 g/ha: 8 g ai/ha; for inhibition at 16 g/ha: 16 g ai/ha
In short: as §10

EPHHL = assay type: in vivo, Euphorbia heterophylla; conditions: 20 DAT
In short: as §10

SMILES: CC1(c2nc(N)nc(Nc3c(F)c(F)cc(F)c3F)n2)CCC1 [compound 8, 6-(1-methylcyclobutyl)-N4-(2,3,5,6-tetrafluorophenyl)-1,3,5-triazine-2,4-diamine]
- inhibition at 16 g/ha (BRADC; 192 h, 8 DAT): 60%
- inhibition at 8 g/ha (BRADC; 480 h, 8 g ai/ha, 20 DAT): 78%
- inhibition at 16 g/ha (BRADC; 480 h, 20 DAT): 70%
- observed % activity (COMBE; 8 g ai/ha): 50%
- observed % activity (COMBE; 16 g ai/ha): 80%
- inhibition at 8 g/ha (COMBE; Commelina benghalensis, pre-emergence, 480 h, 8 g ai/ha, read-out: observed % activity): 60%
- inhibition at 16 g/ha (COMBE; Commelina benghalensis, pre-emergence, 480 h, 16 g ai/ha, read-out: observed % activity): 65%
- observed % activity (PHACA; 16 g ai/ha, 20 DAT): 60%
- inhibition at 8 g/ha (PHACA; 192 h, 8 DAT): 25%
- inhibition at 16 g/ha (PHACA; 192 h, 16 g ai/ha, 8 DAT): 40%
- inhibition at 8 g/ha (PHACA; 480 h, 20 DAT): 28%
- inhibition at 16 g/ha (PHACA; 480 h, 16 g ai/ha, 20 DAT): 50%
- observed % activity (AVEFA; 8 g ai/ha): 5% and 10%
- observed % activity (AVEFA; 16 g ai/ha): 10%
- inhibition at 8 g/ha (AVEFA; Avena fatua, pre-emergence, 192 h, 8 g ai/ha, 8 DAT, read-out: observed % activity): 0%
- inhibition at 16 g/ha (AVEFA; Avena fatua, pre-emergence, 192 h, 16 g ai/ha, 8 DAT, read-out: observed % activity): 0%
- inhibition at 8 g/ha (ALOMY; 192 h, 8 DAT): 50%
- inhibition at 16 g/ha (ALOMY; 192 h, 8 DAT): 90%
- inhibition at 8 g/ha (ALOMY; 480 h, 20 DAT): 55%
- inhibition at 16 g/ha (ALOMY; 480 h, 20 DAT): 90%
- observed % activity (POLCO; 8 g ai/ha, 20 DAT): 0%
- observed % activity (POLCO; 16 g ai/ha, 20 DAT): 70%
- inhibition at 8 g/ha (POLCO; Fallopia convolvulus, pre-emergence, 192 h, 8 g ai/ha, 8 DAT, read-out: observed % activity): 65%
- inhibition at 16 g/ha (POLCO; Fallopia convolvulus, pre-emergence, 480 h, 16 g ai/ha, 20 DAT, read-out: observed % activity): 80%
- observed % activity (SIDRH; 8 g ai/ha): 80%
- observed % activity (SIDRH; 16 g ai/ha): 80%
- inhibition at 8 g/ha (SIDRH; Sida rhombifolia, pre-emergence, 480 h, 8 g ai/ha, read-out: observed % activity): 65%
- inhibition at 16 g/ha (SIDRH; Sida rhombifolia, pre-emergence, 480 h, 16 g ai/ha, read-out: observed % activity): 85%
- observed % activity (KCHSC; 8 g ai/ha): 70% and 80%
- observed % activity (KCHSC; 16 g ai/ha): 80%
- inhibition at 8 g/ha (KCHSC; Bassia scoparia, pre-emergence, 480 h, 8 g ai/ha, read-out: observed % activity): 90%
- inhibition at 16 g/ha (KCHSC; Bassia scoparia, pre-emergence, 480 h, 16 g ai/ha, read-out: observed % activity): 85%
- observed % activity (GERPU; 8 g ai/ha): 20%
- observed % activity (GERPU; 16 g ai/ha): 80%
- inhibition at 16 g/ha (GERPU; Geranium pusillum, pre-emergence, 480 h, 16 g ai/ha, read-out: observed % activity): 60%
- observed % activity (GALAP; 8 g ai/ha, 20 DAT): 20%
- inhibition at 16 g/ha (GALAP; Galium aparine, pre-emergence, 192 h, 16 g ai/ha, 8 DAT, read-out: observed % activity): 0%
- inhibition at 8 g/ha (LOLMU; 192 h, 8 DAT): 30%
- inhibition at 16 g/ha (LOLMU; 192 h, 8 DAT): 40%
- inhibition at 8 g/ha (LOLMU; 480 h, 20 DAT): 30%
- inhibition at 16 g/ha (LOLMU; 480 h, 20 DAT): 40%
- observed % activity (EPHHL; 16 g ai/ha): 65%
- inhibition at 8 g/ha (EPHHL; Euphorbia heterophylla, pre-emergence, 480 h, 8 g ai/ha, read-out: observed % activity): 45%
- inhibition at 16 g/ha (EPHHL; Euphorbia heterophylla, pre-emergence, 480 h, 16 g ai/ha, read-out: observed % activity): 70%
